Laboratory results taken from US10669285B2, “Condensed [1,4] diazepine compounds as autotaxin (ATX) and lysophosphatidic acid (LPA) production inhibitors” (Hoffmann-La Roche Inc., priority 2014, dated 2020).

biological target: ATX (human His-tagged) (Homo sapiens (Human), UniProt Q13822); experiment: Human ATX enzyme inhibition assay (fluorescence quenching, MR121 substrate); type: biochemical; conditions: inhibitory activity against ATX; 30 nM ATX, 1 μM MR121 substrate, 30° C.
Experimental: Human ATX Enzyme Inhibition Assay
ATX inhibition was measured by a fluorescence quenching assay using a specifically labeled substrate analogue (MR121 substrate). To obtain this MR121 substrate, BOC and TBS protected 6-amino-hexanoic acid (R)-3-({2-[3-(2-{2-[2-(2-amino-ethoxy)-ethoxy]-ethoxy}-ethoxy)-propionylamino]-ethoxy}-hydroxy-phosphoryloxy)-2-hydroxy-propyl ester (Ferguson et al., Org Lett 2006, 8 (10), 2023) was labeled with MR121 fluorophore (CAS 185308-24-1, 1-(3-carboxypropyl)-11-ethyl-1,2,3,4,8,9,10,11-octahydro-dipyrido[3,2-b:2′,3′-i]phenoxazin-13-ium) on the free amine of the ethanolamine side and then, after deprotection, subsequently with tryptophan on the side of the aminohexanoic acid.
Assay working solutions were made as follows:
Assay buffer (50 mM Tris-HCl, 140 mM NaCl, 5 mM KCl, 1 mM CaCl2, 1 mM MgCl2, 0.01% Triton-X-100, pH 8.0;
ATX solution: ATX (human His-tagged) stock solution (1.08 mg/mL in 20 mM bicine, pH 8.5, 0.15 M NaCl, 10% glycerol, 0.3% CHAPS, 0.02% NaN3), diluted to 1.4-2.5× final concentration in assay buffer;
MR121 substrate solution: MR121 substrate stock solution (800 μM MR121 substrate in DMSO), diluted to 2-5× final concentration in assay buffer.
Test compounds (10 mM stock in DMSO, 8 μL) were obtained in 384 well sample plates (Corning Costar #3655) and diluted with 8 μL DMSO. Row-wise serial dilutions were made by transferring 8 μL cpd solution to the next row up to […]. The compound and control solutions were mixed five times and 2 μL were transferred to 384 well assay plates (Corning Costar #3702). Then, 15 μL of 41.7 nM ATX solution was added (30 nM final concentration), mixed five times and then incubated for 15 minutes at 30° C. 10 μL of MR121 substrate solution was added (1 μM final concentration), mixed 30 times and then incubated for 15 minutes at 30° C. Fluorescence was then measured every 2 minutes for 1 hour (Perkin Elmer plate: vision multimode reader); light intensity: 2.5%; exp. time: 1.4 sec, Filter: Fluo_630/690 nm) and IC50 values were calculated from these readouts.

Row | IC50 [µM] | Structure (SMILES)
1 | 0.018 | O=C(OCc1ccc(OC(F)(F)F)c(F)c1)N1CCc2cc(C(=O)N3CCc4[nH]nnc4C3)nn2CC1 [Example 3, [3-Fluoro-4-(trifluoromethoxy)phenyl]methyl 2-(1,4,6,7-tetrahydrotriazolo[4,5-c]pyridine-5-carbonyl)-4,5,7,8-tetrahydropyrazolo[1,5-d][1,4]diazepine-6-carboxylate]
2 | 0.006 | O=C(OCc1ccc(OC(F)(F)F)c(Cl)c1)N1CCc2nc(C(=O)N3CCc4[nH]nnc4C3)nn2CC1 [Example 41, [3-chloro-4-(trifluoromethoxy)phenyl]methyl 2-(1,4,6,7-tetrahydrotriazolo[4,5-c]pyridine-5-carbonyl)-5,6,8,9-tetrahydro-[1,2,4]triazolo[1,5-d][1,4]diazepine-7-carboxylate]
3 | 0.07 | N#Cc1ccc(COC(=O)N2CCc3cc(C(=O)N4CCc5[nH]nnc5C4)nn3CC2)cc1F [Example 7, 4-Cyano-3-fluorobenzyl 2-(4,5,6,7-tetrahydro-1H-[1,2,3]triazolo[4,5-c]pyridine-5-carbonyl)-7,8-dihydro-4H-pyrazolo[1,5-d][1,4]diazepine-6(5H)-carboxylate]
4 | 0.012 | CCc1cc(C#N)ccc1OCC(=O)N1CCc2cc(C(=O)N3CCc4[nH]nnc4C3)nn2CC1 [Example 16, 3-Ethyl-4-(2-oxo-2-(2-(4,5,6,7-tetrahydro-1H-[1,2,3]triazolo[4,5-c]pyridine-5-carbonyl)-7,8-dihydro-4H-pyrazolo[1,5-d][1,4]diazepin-6(5H)-yl)ethoxy)benzonitrile]
5 | 0.015 | O=C(OCc1ccc(OC(F)(F)F)cc1)N1CCc2nc(C(=O)N3CCc4[nH]nnc4C3)nn2CC1 [Example 11, [4-(Trifluoromethoxy)phenyl]methyl 2-(1,4,6,7-tetrahydrotriazolo[4,5-c]pyridine-5-carbonyl)-5,6,8,9-tetrahydro-[1,2,4]triazolo[1,5-d][1,4]diazepine-7-carboxylate]
6 | 0.017 | O=C(OCc1ccc(OC(F)(F)F)cc1)N1CCc2nc(C(=O)N3CCc4[nH]nnc4C3)cn2CC1 [Example 13, [4-(Trifluoromethoxy)phenyl]methyl 2-(1,4,6,7-tetrahydrotriazolo[4,5-c]pyridine-5-carbonyl)-5,6,8,9-tetrahydroimidazo[1,2-d][1,4]diazepine-7-carboxylate]
7 | 0.002 | O=C(OCc1ccc(OC(F)(F)F)cc1)N1CCc2cc(C(=O)N3CCc4[nH]nnc4C3)nn2CC1 [Example 5, [4-(Trifluoromethoxy)phenyl]methyl 2-(1,4,6,7-tetrahydrotriazolo[4,5-c]pyridine-5-carbonyl)-4,5,7,8-tetrahydropyrazolo[1,5-d][1,4]diazepine-6-carboxylate]

Further lines, the molecule ahead of its results:

Row | Structure (SMILES) | IC50 [µM]
8 | COc1ccc(COC(=O)N2CCc3cc(C(=O)N4CCc5[nH]nnc5C4)nn3CC2)cc1F [Example 32, 3-fluoro-4-methoxybenzyl 2-(4,5,6,7-tetrahydro-1H-[1,2,3]triazolo[4,5-c]pyridine-5-carbonyl)-7,8-dihydro-4H-pyrazolo[1,5-d][1,4]diazepine-6(5H)-carboxylate] | 0.03
9 | O=C1N[C@@H]2CCN(C(=O)c3nc4n(n3)CCN(C(=O)OCc3ccc(OC(F)(F)F)c(F)c3)CC4)C[C@H]2O1 [Example 43, 3-fluoro-4-(trifluoromethoxy)benzyl 2-((3aR,7aR)-2-oxooctahydrooxazolo[5,4-c]pyridine-5-carbonyl)-8,9-dihydro-5H-[1,2,4]triazolo[1,5-d][1,4]diazepine-7(6H)-carboxylate] | 0.056
10 | O=C(OCc1ccccc1)N1CCc2nc(C(=O)N3CCc4[nH]nnc4C3)cn2CC1 [Example 2, Benzyl 2-(1,4,6,7-tetrahydrotriazolo[4,5-c]pyridine-5-carbonyl)-5,6,8,9-tetrahydroimidazo[1,2-d][1,4]diazepine-7-carboxylate] | 2.01
11 | CC(C)c1cc(C#N)ccc1COC(=O)N1CCc2cc(C(=O)N3CCc4[nH]nnc4C3)nn2CC1 [Example 9, (4-Cyano-2-propan-2-ylphenyl)methyl 2-(1,4,6,7-tetrahydrotriazolo[4,5-c]pyridine-5-carbonyl)-4,5,7,8-tetrahydropyrazolo[1,5-d][1,4]diazepine-6-carboxylate] | 0.006
12 | O=C(OCc1ccccc1)N1CCc2cc(C(=O)N3CCc4[nH]nnc4C3)nn2CC1 [Example 1, Benzyl 2-(1,4,6,7-tetrahydrotriazolo[4,5-c]pyridine-5-carbonyl)-4,5,7,8-tetrahydropyrazolo[1,5-d][1,4]diazepine-6-carboxylate] | 0.158
13 | O=C(OCc1ccc(OC(F)(F)F)cc1F)N1CCc2nc(C(=O)N3CCc4[nH]nnc4C3)nn2CC1 [Example 35, [2-fluoro-4-(trifluoromethoxy)phenyl]methyl 2-(1,4,6,7-tetrahydrotriazolo[4,5-c]pyridine-5-carbonyl)-5,6,8,9-tetrahydro-[1,2,4]triazolo[1,5-d][1,4]diazepine-7-carboxylate] | 0.013
14 | O=C(OCc1ccc(F)c(F)c1)N1CCc2cc(C(=O)N3CCc4[nH]nnc4C3)nn2CC1 [Example 30, (3,4-difluorophenyl)methyl 2-(1,4,6,7-tetrahydrotriazolo[4,5-c]pyridine-5-carbonyl)-4,5,7,8-tetrahydropyrazolo[1,5-d][1,4]diazepine-6-carboxylate] | 0.041
15 | O=C(OCc1ccc(OCC(F)(F)F)cc1)N1CCc2cc(C(=O)N3CCc4[nH]nnc4C3)nn2CC1 [Example 40, 4-(2,2,2-trifluoroethoxy)benzyl 2-(4,5,6,7-tetrahydro-1H-[1,2,3]triazolo[4,5-c]pyridine-5-carbonyl)-7,8-dihydro-4H-pyrazolo[1,5-d][1,4]diazepine-6(5H)-carboxylate] | 0.017
16 | COc1ccc(COC(=O)N2CCc3cc(C(=O)N4CCc5[nH]nnc5C4)nn3CC2)c(C)c1 [Example 33, 4-methoxy-2-methylbenzyl 2-(4,5,6,7-tetrahydro-1H-[1,2,3]triazolo[4,5-c]pyridine-5-carbonyl)-7,8-dihydro-4H-pyrazolo[1,5-d][1,4]diazepine-6(5H)-carboxylate] | 0.094
17 | O=C(CCc1ccc(OC(F)(F)F)cc1)N1CCc2nc(C(=O)N3CCc4[nH]nnc4C3)nn2CC1 [Example 20, 1-[2-(1,4,6,7-tetrahydrotriazolo[4,5-c]pyridine-5-carbonyl)-5,6,8,9-tetrahydro-[1,2,4]triazolo[1,5-d][1,4]diazepin-7-yl]-3-[4-(trifluoromethoxy)phenyl]propan-1-one] | 0.006
18 | O=C(OCc1ccc(C2CC2)cc1)N1CCc2cc(C(=O)N3CCc4[nH]nnc4C3)nn2CC1 [Example 34, 4-cyclopropylbenzyl 2-(4,5,6,7-tetrahydro-1H-[1,2,3]triazolo[4,5-c]pyridine-5-carbonyl)-7,8-dihydro-4H-pyrazolo[1,5-d][1,4]diazepine-6(5H)-carboxylate] | 0.007
19 | COc1cc(OC(F)(F)F)ccc1COC(=O)N1CCc2cc(C(=O)N3CCc4[nH]nnc4C3)nn2CC1 [Example 38, 2-methoxy-4-(trifluoromethoxy)benzyl 2-(4,5,6,7-tetrahydro-1H-[1,2,3]triazolo[4,5-c]pyridine-5-carbonyl)-7,8-dihydro-4H-pyrazolo[1,5-d][1,4]diazepine-6(5H)-carboxylate] | 0.021
